Laboratory results published in patent US7579006B2, “Method of treating immune pathologies with low dose estrogen” (Oregon Health and Science University, priority 2000, dated 2009).
“And” between values parts separate entries of the source, which are not always exact repeats. Equal values may be shown once.

What was measured:
[1] = system: draining lymph node (LN) cells; experiment: MOG 35-55 stimulated proliferation of draining lymph node cells; assay type: in vivo; conditions: WT and cytokine deficient mice, 2.5 mg pellet
Procedure: Proliferation assay. Proliferation assays were performed on draining lymph node (DLN) and spleen (SP) cells essentially as described in Examples I and II, using MOG 35-55 as the test antigen. […] Proliferation of draining lymph node (LN) cells from either untreated or E2 treated mice was measured to determine if E2 could alter the ability of T lymphocytes to recognize and respond to the immunizing antigen. LN cells were isolated from three representative mice for each group and the cells pooled prior to stimulation with MOG 35-55 for 72 hr.

Vβ8.2+/CD4+ T CELLS = experiment: Flow cytometry of adhesion and activation antigens on LN Vβ8.2+/CD4+ T cells; assay type: in vivo, mice; conditions: E2 treated
Procedure: The regulation of cell adhesion molecules is another possible mechanism by which estrogen treatment controls the migration of inflammatory cells into the CNS. The expression of cell surface adhesion and activation/memory antigens was determined by staining with fluorochrome-labeled antibodies and flow cytometry. No significant differences in the expression of VLA-4, CD44, or CD62L were detected between LN cells from E2 versus control mice with EAE (Table 18). Furthermore, no differences in activation markers (CD69, CD25, FASL, CD40L, CD28) were seen.

[2] = Serum 17β-estradiol measured by RIA in Tg mice; assay type: in vivo; conditions: 0.36 mg pellet
Procedure: Androgen and estrogen detection. Mice were bled by cardiac puncture and the blood was allowed to clot at 4° C. overnight. The samples were centrifuged, and the sera collected and stored at −80° C. until hormone analysis was performed. Serum levels of estrogen were determined by radioimmunoassay (RIA) after Sephadex LH-20 column chromatography, as described in Roselli et al., Endocrine 64:139 (1996). All samples were analyzed in a single assay.
17β-estradiol treatment. For 17β-estradiol hormone therapy, 3-mm pellets containing 0.36 mg of 17β-estradiol (Innovative Research of America, Sarasota, Fla.), expected to provide physiological equivalence of the estrus cycle (150-200 pg/ml in serum) over 60 days, were implanted s.c. on the animal's back 7 days before induction of EAE. […] The 17β-estradiol pellets provide continuous controlled release of a constant level of hormone over a period of 60 days. Serum concentrations of 17β-estradiol were evaluated in representative mice from each group. Sham treated mice had variable levels of 17β-estradiol that reflected both estrus and diestrus mice (ranging from about 20 to 200 pg/ml, on average about 50 pg/ml). […] E2-treated intact mice were also variable (about 200-400 pg/ml), reflecting the combination of native estrus/diestrus levels plus the exogenous estradiol from the pellet, whereas the E2-treated OVX mice were somewhat lower (about 150-200 pg/ml).

C57BL/6 mice = experiment: EAE induced with MOG 35-55 in C57BL/6 mice (clinical, histopathology); assay type: in vivo
Procedure: Estrogen treatment. Sixty-day release pellets containing 2.5 mg of 17β-estradiol (E2) or vehicle were implanted subcutaneously (s.c) in the scapular region behind the neck using a 12-gauge trochar as described by the manufacturer (Innovative Research of America, Sarasota, Fla.). The mice were implanted one week prior to immunization with MOG 35-55. The concentration of E2 expected in the serum is between 1,500-2,000 pg/ml, which is approximately 5 times less than the levels found during pregnancy.
Induction of EAE. C57BL/6 and cytokine deficient mice were inoculated s.c in the flanks with 0.2 ml of an emulsion containing 200 μg of MOG 35-55 in saline and an equal volume of complete Freund's Adjuvant (CFA) containing 400 μg of Mycobacterium tuberculosis H37RA (Difco Laboratories, Detroit, Mich.). Disease induction required i.v. administration of pertussis toxin on the day of immunization (25 ng/mouse) and 2 days later (67 ng/mouse). The mice were assessed daily for clinical signs of EAE according to the 7 point scale described in Example I.
Histopathology. Histopathologic assessment of spinal column section was performed essentially as described in Example I, except that sections were stained with either luxol fast blue-periodic acid schiff-hematoxylin or silver nitrate prior to analysis.
Statistical analysis. Significant differences in incidence and mortality between untreated and E2 treated mice were assessed by Chi-square analysis. Difference in onset was determined using the two-tailed Student t test. Differences in peak score and cumulative disease index (CDI) were assessed by the Mann-Whitney test. Statistical significance of the frequency of cytokine secreting cells was analyzed using Student's t test for comparisons of two means. Differences in the expression of chemokine and cytokine mRNA were also determined using the Student t test. Values of p<0.05 were considered significant.

female SJL mice = experiment: EAE induced with PLP 139-151 in female SJL mice (clinical scores, spinal cord histopathology); assay type: in vivo; conditions: for Demyelinated foci/section / Inflammatory foci/section: spinal cord at peak of disease
[3] = system: ovariectomized Tg female mice; experiment: EAE in ovariectomized BV8S2 Tg female mice; assay type: in vivo
[4] = single experiments (Exp #1-#2), listed as E2
[5] = single experiments (Exp #1-#3), listed as E2
[6] = 0.36 mg pellet, OVX Tg females (Example III)

## C[C@]12CC[C@@H]3c4ccc(O)cc4CC[C@H]3[C@@H]1CC[C@@H]2O [17β-estradiol]
[1]
  LN proliferation response to MOG 35-55: no effect
Vβ8.2+/CD4+ T CELLS; Exp #1
  CD28, % of Vβ8.2+/CD4+ T CELLS: 4.5%
  CD40L, % of Vβ8.2+/CD4+ T CELLS: 0%
  CD62lo, % of Vβ8.2+/CD4+ T CELLS: 47.3%
Vβ8.2+/CD4+ T CELLS; mean of experiments
  CD25, % of Vβ8.2+/CD4+ T CELLS, mean: 7.4 ± 4.3%
  CD44hi, % of Vβ8.2+/CD4+ T CELLS, mean: 55.8 ± 13.8%
  CD69, % of Vβ8.2+/CD4+ T CELLS, mean: 21.6 ± 5.8%
  FASL, % of Vβ8.2+/CD4+ T CELLS, mean: 1.6 ± 2.1%
  VLA-4, % of Vβ8.2+/CD4+ T CELLS, mean: 57.5 ± 7.4%
Vβ8.2+/CD4+ T CELLS; [4]
  CD25, % of Vβ8.2+/CD4+ T CELLS: 4.3% and 10.4%
  CD69, % of Vβ8.2+/CD4+ T CELLS: 17.5% and 25.7%
  FASL, % of Vβ8.2+/CD4+ T CELLS: 0.1% and 3.1%
Vβ8.2+/CD4+ T CELLS; [5]
  CD44hi, % of Vβ8.2+/CD4+ T CELLS: 68.8% and 41.2% and 57.3%
  VLA-4, % of Vβ8.2+/CD4+ T CELLS: 64.2% and 58.7% and 49.6%
[2]; OVX Tg mice
  serum 17β-estradiol: 100 to 200 pg/mL
[2]; OVX Tg mice, listed as E2
  serum 17β-estradiol: 150 to 200 pg/mL
[2]; intact Tg mice (pellet plus native hormone)
  serum 17β-estradiol: 150 to 400 pg/mL
[2]; intact Tg mice (pellet plus native hormone), listed as E2
  serum 17β-estradiol: 200 to 400 pg/mL
C57BL/6 mice; B6, 2.5 mg pellet
  CDI: 15.1 ± 17.0
  Incidence: 19/31
  Mortality: 0/31
  Onset: 20.8 ± 3.7
  Peak Score: 4.2 ± 1.2
C57BL/6 mice; C57BL/6, 2.5 mg pellet, spinal cord
  Inflammatory foci/section: 0.0 ± 0.0 Foci/Section
Female SJL mice; 0.025 mg/pellet (diestrus)
  CDI (cumulative disease index): 19.2 ± 10.0
  Incidence: 15/18
  Incidence (%): (83%)
  Onset: 15.8 ± 3.5 days
  Peak (disease score): 3.6 ± 1.3
  Relapse: 5/9
  Relapse (%): (56%)
Female SJL mice; 0.1 mg/pellet (diestrus)
  CDI (cumulative disease index): 8.9 ± 3.4
  Incidence: 12/19
  Incidence (%): (63%)
  Onset: 14.5 ± 2.0 days
  Peak (disease score): 2.0 ± 0.9
  Relapse: 2/9
  Relapse (%): (22%)
Female SJL mice; 0.36 mg pellet
  Demyelinated foci/section: 0.5 ± 0.3 foci/section
  Inflammatory foci/section: 1.3 ± 0.8 foci/section
Female SJL mice; 0.36 mg/pellet (estrus)
  CDI (cumulative disease index): 9.8 ± 1.9
  Incidence: 15/19
  Incidence (%): (79%)
  Onset: 15.1 ± 1.3 days
  Peak (disease score): 2.5 ± 0.6
  Relapse: 2/9
  Relapse (%): (22%)
Female SJL mice; 2.5 mg pellet
  Demyelinated foci/section: 0.5 ± 0.4 foci/section
  Inflammatory foci/section: 0.6 ± 0.8 foci/section
Female SJL mice; 2.5 mg/pellet (pregnancy)
  CDI (cumulative disease index): 7.5 ± 7.9
  Incidence: 4/10
  Incidence (%): (40%)
  Onset: 13.8 ± 0.5 days
  Peak (disease score): 2.0 ± 2.1
  Relapse: 0/4
  Relapse (%): (0%)
Female SJL mice; Fisher exact test, same animal model
  comparison of E2 and E3 in incidence or severity of EAE: equally protective
[3]; [6]
  CDI: 40.0 ± 8.5
  Incidence: 8/11
  Onset: 16.5 ± 2.3
  Peak: 2.6 ± 0.6
[3]; Ovx Tg females
  Average CDI (10-30): 40.0 ± 22.1^B
  Incidence: 11/15
  Mortality: 4/15
  Onset: 13.6 ± 1.5
  Peak: 3.5 ± 0.8
